We go through 30 molecules from ChEMBL document CHEMBL1177659, “Structure-based virtual screening, synthesis and SAR of novel inhibitors of hepatitis C virus NS5B polymerase” (Bioorg Med Chem, 2010).

A short description of experiment [1]: Inhibition of His-tagged recombinant NS5B Cdelta 21 polymerase expressed in Escherichia coli DH5alpha by standard primer dependent elongation assay. Also noted: species or system Hepacivirus hominis.
Experiment [2] relates to Hepacivirus hominis. In words: Inhibition of His-tagged recombinant NS5B Cdelta 21 polymerase expressed in Escherichia coli DH5alpha at 250 uM by standard primer dependent elongation assay relative to control.

SMILES strings stand for the structures.

For `O=C(O)CN1C(=O)/C(=C/c2cccc(C(F)(F)F)c2)SC1=S`, in experiment [1], the IC50 came to 50.9 µM.

Regarding `O=C(O)c1ccc2c(c1)C(=O)N(c1cccc(O)c1)C2=O`, the inhibition in experiment [2] came out at 55%. The IC50 in experiment [1] worked out at 200 µM.

Take `CC(C)C(C(=O)O)N1C(=O)/C(=C/c2cccc3ccccc23)SC1=S` (centres undefined): in experiment [1], the concentration for half-maximal inhibition (IC50) came out at 16.9 µM.

For `O=C(O)CN1C(=O)/C(=C/c2ccc(Cl)c(Cl)c2)SC1=S`, the IC50 in experiment [1] stood at 8.4 µM.

As to `O=C(O)CN1C(=O)/C(=C/c2cccc(Br)c2)SC1=S`, the IC50 in experiment [1] was determined as 20.2 µM.

As to `CSCCC(C(=O)O)N1C(=O)/C(=C/c2ccc(Cl)cc2Cl)SC1=S` (centres undefined), the IC50 in experiment [1] turned out to be 29.2 µM.

Turning to `CC(C)C(C(=O)O)N1C(=O)/C(=C/c2ccccc2Cl)SC1=S` (centres undefined), the IC50 in experiment [1] turned out to be 36.1 µM.

Regarding `O=C(O)CCN1C(=O)/C(=C/c2ccc(Cl)cc2Cl)SC1=S`, in experiment [1], the IC50 was determined as 19.9 µM.

On to `N#Cc1nc(-c2ccccc2)c(-c2ccccc2)nc1C#N`, for which, in experiment [2], the inhibition was determined as 48.6%. Also, the IC50 in experiment [1] was found to be 250 µM.

`O=C(O)CN1C(=O)/C(=C/c2ccc(Cl)cc2Cl)SC1=S`: the concentration for half-maximal inhibition (IC50) in experiment [1] was 17.9 µM.

Turning to `O=C(O)CN1C(=O)/C(=C/c2cccc(Oc3ccccc3)c2)SC1=S`, the IC50 in experiment [1] stood at 7.7 µM.

On to `O=C(O)CN1C(=O)/C(=C/c2ccc(C(F)(F)F)cc2)SC1=S`, for which, in experiment [2], the inhibition is 71%. The IC50 in experiment [1] turned out to be 55.2 µM.

Consider `CC(C)C(C(=O)O)N1C(=O)/C(=C/c2ccc(F)cc2)SC1=S` (centres undefined), for which, in experiment [1], the IC50 is 42.9 µM.

Regarding `O=c1oc2ccccc2c2c1ncn2-c1ccccc1`, in experiment [2], the inhibition is 62.5%. The IC50 in experiment [1] is 60.2 µM.

Take `O=C(O)CN1C(=O)/C(=C/c2cccc3ccccc23)SC1=S`: in experiment [1], the half-maximal inhibitory concentration (IC50) is 61.4 µM.

In the case of `O=C1/C(=C/c2ccc(Cl)cc2Cl)SC(=S)N1CCS(=O)(=O)O`, in experiment [1], the IC50 amounted to 23.5 µM.

For `O=C(O)C(Cc1ccccc1)N1C(=O)/C(=C/c2ccc(Cl)cc2Cl)SC1=S` (centres undefined), the half-inhibitory concentration (IC50) in experiment [1] came out at 10.6 µM.

Take `O=C(O)CN1C(=O)/C(=C/c2ccc(F)cc2)SC1=S`: in experiment [1], the half-maximal inhibitory concentration (IC50) is 42.1 µM.

With `CC(C(=O)O)N1C(=O)/C(=C/c2cccc3ccccc23)SC1=S` (centres undefined), the IC50 in experiment [1] was 68.1 µM.

`O=C(O)CN1C(=O)/C(=C/c2cccc(Cl)c2)SC1=S`: in experiment [1], the IC50 amounted to 18.4 µM.

With `O=C(O)CN1C(=O)/C(=C/c2ccc([N+](=O)[O-])cc2)SC1=S`, in experiment [1], the IC50 came out at 21.9 µM.

Take `CC(C(=O)O)N1C(=O)/C(=C/c2ccc(Cl)cc2Cl)SC1=S` (centres undefined): the IC50 in experiment [1] was 13.3 µM.

For `CC(C)C(C(=O)O)N1C(=O)/C(=C/c2ccc(Cl)cc2Cl)SC1=S` (centres undefined), the IC50 in experiment [1] came out at 14.1 µM.

For `CCc1ccc(/C=C2\SC(N[C@@H](C(=O)O)c3ccc(F)cc3)=NC2=O)o1` (stereo in doubt) [VALEANT], the IC50 in experiment [1] is 3 µM.

Turning to `O=C1/C(=C/c2ccc(Cl)c(Cl)c2)SC(=S)N1NS(=O)(=O)c1ccccc1`, in experiment [1], the half-inhibitory concentration (IC50) turned out to be 0.2 µM.

In the case of `O=C(O)CCCN1C(=O)/C(=C/c2ccc(Cl)cc2Cl)SC1=S`, the IC50 in experiment [1] worked out at 58 µM.

Turning to `O=C(O)CN1C(=O)/C(=C/c2ccccc2[N+](=O)[O-])SC1=S`, the IC50 in experiment [1] was 16.2 µM.

Consider `O=C(O)CCCCCN1C(=O)/C(=C/c2ccc(Cl)cc2Cl)SC1=S`, for which the IC50 in experiment [1] was 16.1 µM.

In the case of `CCCC(C(=O)O)N1C(=O)/C(=C/c2ccc(Cl)cc2Cl)SC1=S` (centres undefined), in experiment [1], the IC50 worked out at 28.2 µM.

Regarding `CC(C)CC(C(=O)O)N1C(=O)/C(=C/c2ccc(Cl)cc2Cl)SC1=S` (centres undefined), the IC50 in experiment [1] was 18.9 µM.
